Laboratory results published in PubChem BioAssay (NCI).
Several values for one entry are separate records, joined by “and”; a condition that tells them apart may be missing. Identical values can stand only once.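 Where inhibition never reached the appropriate level, the endpoint shown equals the highest concentration tested. Otherwise, values were interpolated linearly from a five-concentration, 48-hour dose response in 96-well plates. The concentration for 50% growth inhibition is given as GI50. The concentration for full growth arrest is given as TGI.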

Legend:
Assay in all cases: NCI tumour cell line growth inhibition, 48 h
[1] = test system: 786-0 renal
[2] = test system: A498 renal
[3] = test system: A549 NSCLC
[4] = test system: ACHN renal
[5] = test system: CAKI-1 renal
[6] = test system: CCRF-CEM leukemia
[7] = test system: DU-145 prostate
[8] = test system: EKVX NSCLC
[9] = test system: HCT-116 colon
[10] = test system: HCT-15 colon
[11] = test system: HL-60(TB) leukemia
[12] = test system: HOP-62 NSCLC
[13] = test system: HOP-92 NSCLC
[14] = test system: HS 578T breast
[15] = test system: HT29 colon
[16] = test system: IGROV1 ovarian
[17] = test system: K-562 leukemia
[18] = test system: KM12 colon
[19] = test system: LOX IMVI melanoma
[20] = test system: M14 melanoma
[21] = test system: MCF7 breast
[22] = test system: MDA-MB-231 breast
[23] = test system: MDA-MB-435
[24] = test system: MDA-N
[25] = test system: MOLT-4 leukemia
[26] = test system: OVCAR-4 ovarian
[27] = test system: OVCAR-5 ovarian
[28] = test system: OVCAR-8 ovarian
[29] = test system: PC-3 prostate
[30] = test system: RPMI-8226 leukemia
[31] = test system: RXF 393 renal
[32] = test system: SF-268 CNS
[33] = test system: SK-MEL-2 melanoma
[34] = test system: SK-MEL-28 melanoma
[35] = test system: SK-MEL-5 melanoma
[36] = test system: SK-OV-3 ovarian
[37] = test system: SN12C renal
[38] = test system: SNB-19 CNS
[39] = test system: SR leukemia
[40] = test system: SW-620 colon
[41] = test system: TK-10 renal
[42] = test system: U251 CNS
[43] = test system: UACC-257 melanoma
[44] = test system: UACC-62 melanoma
[45] = test system: BT-549 breast
[46] = test system: COLO 205 colon
[47] = test system: HCC-2998 colon
[48] = test system: MALME-3M melanoma
[49] = test system: NCI-H226 lung
[50] = test system: NCI-H23 lung
[51] = test system: NCI-H460 lung
[52] = test system: NCI-H522 lung
[53] = test system: NCI/ADR-RES ovarian
[54] = test system: OVCAR-3 ovarian
[55] = test system: SF-295 CNS
[56] = test system: SF-539 CNS
[57] = test system: SNB-75 CNS
[58] = test system: T-47D breast
[59] = test system: UO-31 renal

For `COc1ccc(/C=C2\CCC(C)C3=C2N=c2s/c(=C/c4cccc(Br)c4)c(=O)n2C3c2ccc(OC)c(OC)c2)cc1OC` (stereo unspecified), the TGI [1] was > 100 µM, the TGI [2] was > 100 µM and the TGI [3] was > 100 µM. For the same molecule, the TGI [4] was > 100 µM, the TGI [5] was > 100 µM and the TGI [6] was > 100 µM. For the same molecule, the TGI [7] was > 100 µM, the TGI [8] was > 100 µM and the TGI [9] was > 100 µM. The TGI [10] was > 100 µM, the TGI [11] was > 100 µM and the TGI [12] was > 100 µM. For the same molecule, the TGI [13] was > 100 µM, the TGI [14] was > 100 µM and the TGI [15] was > 100 µM. For the same molecule, the TGI [16] was > 100 µM, the TGI [17] was > 100 µM and the TGI [18] was > 100 µM. For the same molecule, the TGI [19] was > 100 µM, the TGI [20] was > 100 µM and the TGI [21] was > 100 µM. The TGI [22] was > 100 µM, the TGI [23] was > 100 µM and the TGI [24] was > 100 µM. The TGI [25] was > 100 µM, the TGI [26] was > 100 µM and the TGI [27] was > 100 µM. The TGI [28] was > 100 µM, the TGI [29] was > 100 µM and the TGI [30] was > 100 µM. For the same molecule, the TGI [31] was > 100 µM, the TGI [32] was > 100 µM and the TGI [33] was > 100 µM. The TGI [34] was > 100 µM, the TGI [35] was > 100 µM and the TGI [36] was > 100 µM. For the same molecule, the TGI [37] was > 100 µM, the TGI [38] was > 100 µM and the TGI [39] was > 100 µM. For the same molecule, the TGI [40] was > 100 µM, the TGI [41] was > 100 µM and the TGI [42] was > 100 µM. For the same molecule, the TGI [43] was > 100 µM and the TGI [44] was > 100 µM.

For `Cc1cn(-c2cc(NC(=O)c3ccc(C)c(Nc4nccc(-c5cccnc5)n4)c3)cc(C(F)(F)F)c2)cn1`, the GI50 [1] was > 10000 nM and 2240 nM, the TGI [1] was > 10 µM and 7.1 µM and the GI50 [2] was > 10 µM and 4.09 µM. The TGI [2] was > 10 µM and 12.1 µM, the GI50 [3] was 5.31 µM and 2.68 µM and the TGI [3] was > 10 µM and 7.76 µM. For the same molecule, the GI50 [4] was > 10 µM and 9.36 µM, the TGI [4] was > 10 µM and 27.2 µM and the GI50 [45] was 5.38 µM and 3.57 µM. The TGI [45] was > 10 µM and 10 µM, the GI50 [5] was > 10 µM and 7.37 µM and the TGI [5] was > 10 µM and 14.3 µM. For the same molecule, the GI50 [6] was > 10000 nM and 1250 nM, the TGI [6] was > 32.3 µM and the GI50 [46] was 1580 nM and 1230 nM. The TGI [46] was 7.11 µM and 5.52 µM, the GI50 [7] was 3250 nM and 2340 nM and the TGI [7] was > 10 µM and 4.47 µM. For the same molecule, the GI50 [8] was 6.23 µM and 5.98 µM, the TGI [8] was > 10 µM and 26.1 µM and the TGI [47] was > 65 µM. The GI50 [9] was 4.26 µM and 2.06 µM, the TGI [9] was > 10 µM and 7.79 µM and the GI50 [10] was 3.18 µM and 4.6 µM. For the same molecule, the TGI [10] was > 38.3 µM, the GI50 [12] was > 10 µM and 8.92 µM and the TGI [12] was > 10 µM and 26.3 µM. For the same molecule, the TGI [13] was > 100 µM, the GI50 [14] was 5.73 µM and 2.52 µM and the TGI [14] was > 10 µM and 6.8 µM. The GI50 [15] was 1700 nM and 1940 nM, the TGI [15] was > 10 µM and 9.13 µM and the GI50 [16] was 2230 nM and 1830 nM. The TGI [16] was 5.06 µM and 4.2 µM, the GI50 [17] was 2150 nM and the TGI [17] was > 10 µM and 1.03 µM. For the same molecule, the GI50 [18] was 3.81 µM and 2.72 µM, the TGI [18] was > 10 µM and 9.49 µM and the GI50 [19] was 2.77 µM and 5.57 µM. For the same molecule, the TGI [19] was > 10 µM and 26.5 µM, the GI50 [20] was 1660 nM and 1450 nM and the TGI [20] was 5.91 µM and 4.87 µM. The GI50 [48] was 1690 nM and 780 nM, the TGI [48] was 5.04 µM and 4.1 µM and the GI50 [21] was 2490 nM and 2350 nM. For the same molecule, the TGI [21] was 7.39 µM and 7.55 µM, the GI50 [22] was 3680 nM and 1810 nM and the TGI [22] was > 10 µM and 14.3 µM. For the same molecule, the GI50 [23] was 1790 nM and 1570 nM, the TGI [23] was 4.65 µM and 4.76 µM and the GI50 [25] was 3210 nM and 1600 nM. The TGI [25] was > 37.2 µM, the GI50 [49] was > 10 µM and 16.2 µM and the TGI [49] was > 10 µM and 39.8 µM. The GI50 [50] was 7.35 µM and 6.5 µM, the TGI [50] was > 10 µM and 30 µM and the GI50 [51] was 3310 nM and 2330 nM. For the same molecule, the TGI [51] was > 10 µM and 10.7 µM, the GI50 [52] was 3.46 µM and 4.18 µM and the TGI [52] was > 10 µM and 24.4 µM. The GI50 [53] was 5.72 µM and 2.5 µM, the TGI [53] was > 10 µM and 16.1 µM and the GI50 [54] was 5.77 µM and 4.38 µM. For the same molecule, the TGI [54] was > 10 µM and 11.5 µM, the GI50 [26] was 5.15 µM and 2.39 µM and the TGI [26] was > 10 µM and 7.32 µM. For the same molecule, the GI50 [27] was > 10 µM and 3.48 µM, the TGI [27] was > 10 µM and 16.4 µM and the GI50 [28] was 4.43 µM and 4.29 µM. The TGI [28] was > 10 µM and 24.8 µM, the GI50 [29] was 3.19 µM and 3.23 µM and the TGI [29] was > 10 µM. The GI50 [30] was 2290 nM and 2250 nM, the TGI [30] was > 100 µM and the GI50 [31] was 2590 nM and 2010 nM. For the same molecule, the TGI [31] was 6.54 µM and 4.12 µM, the GI50 [32] was 5.78 µM and 3.45 µM and the TGI [32] was > 10 µM and 15.2 µM. For the same molecule, the GI50 [55] was 3160 nM and 2780 nM, the TGI [55] was > 10 µM and 11.3 µM and the GI50 [56] was > 10 µM and 15.4 µM. The TGI [56] was > 10 µM and 31.9 µM, the GI50 [33] was 2190 nM and 2100 nM and the TGI [33] was > 10 µM and 10.4 µM. For the same molecule, the GI50 [34] was 1810 nM and 1400 nM, the TGI [34] was 5.97 µM and 3.18 µM and the GI50 [35] was 1730 nM. For the same molecule, the TGI [35] was 7.01 µM, the GI50 [36] was > 10 µM and 3.91 µM and the TGI [36] was > 10 µM and 11.3 µM. The GI50 [37] was > 10 µM and 13 µM, the TGI [37] was > 10 µM and 29 µM and the GI50 [38] was > 10 µM and 13.1 µM. The TGI [38] was > 10 µM and 32.7 µM, the GI50 [57] was 8.04 µM and 3.47 µM and the TGI [57] was > 10 µM and 11.5 µM. For the same molecule, the GI50 [39] was 3060 nM and 2670 nM, the TGI [39] was > 10 µM and 26.9 µM and the GI50 [40] was 4.44 µM and 3.43 µM. For the same molecule, the TGI [40] was > 40.9 µM, the GI50 [58] was > 10 µM and 6.71 µM and the TGI [58] was > 10 µM and 32.3 µM. For the same molecule, the GI50 [41] was 5.26 µM and 4.07 µM, the TGI [41] was > 10 µM and 9.38 µM and the GI50 [42] was 2970 nM and 2470 nM. For the same molecule, the TGI [42] was > 10 µM and 7.32 µM, the GI50 [43] was 4.46 µM and 2.49 µM and the TGI [43] was > 10 µM and 7.97 µM. For the same molecule, the GI50 [44] was 1650 nM and 1090 nM, the TGI [44] was > 10 µM and 9.18 µM and the GI50 [59] was 1750 nM and 1580 nM. The TGI [59] was 8.9 µM and 4.56 µM.
